Values joined by “and” are separate entries in the source; they are usually repeats but may differ in a detail not shown here. Equal entries are not always repeated.
How the values were obtained:
OXA-10 [1] = target: T1, OXA-10 (Pseudomonas aeruginosa, UniProt P14489); test: IC50/pIC50 determination with fluorescent reporter substrate FC-5 after pre-incubation; type: biochemical
T1 construct: His tag (N); made in house
Method: Kinetic analyses were performed (at least in triplicate) using either BMG LABTECH PHERAstar or CLARIOstar plate readers. Unless stated otherwise, reactions were in 50 mM phosphate buffer, pH 7.5, containing 0.01% (vol/vol) aqueous Triton X-100, and, in the case of OXA-10, 10 mM sodium bicarbonate. […] Nonlinear regression analysis was performed with Prism 5 (GraphPad Software).
IC50s were determined as reported ([35]). […] The apparent inhibitory constant Kiapp and the second-order rate constant kinact/K (or k2/K) were determined using reported methods ([60]). SBLs were reacted with the reporter substrate in the presence of varied inhibitor concentrations. Reactions were initiated by SBL addition and immediately monitored for 60 to 120 s (until they plateaued). […] P=Vst+(V0−VS)(1−e^−kobst)/kobs+P0.

OXA-10 [2] = target: T1, OXA-10; test: SPE-MS study of prolonged reaction of SBL with penam sulfones; conditions: 500 equiv.
[3] = target: T2, AmpC from Escherichia coli (AmpCEC) (Escherichia coli, UniProt P00811); test: IC50/pIC50 determination with fluorescent reporter substrate FC-5 after pre-incubation; type: biochemical
T2 construct: made in house
T2 sequence (P00811 20-377): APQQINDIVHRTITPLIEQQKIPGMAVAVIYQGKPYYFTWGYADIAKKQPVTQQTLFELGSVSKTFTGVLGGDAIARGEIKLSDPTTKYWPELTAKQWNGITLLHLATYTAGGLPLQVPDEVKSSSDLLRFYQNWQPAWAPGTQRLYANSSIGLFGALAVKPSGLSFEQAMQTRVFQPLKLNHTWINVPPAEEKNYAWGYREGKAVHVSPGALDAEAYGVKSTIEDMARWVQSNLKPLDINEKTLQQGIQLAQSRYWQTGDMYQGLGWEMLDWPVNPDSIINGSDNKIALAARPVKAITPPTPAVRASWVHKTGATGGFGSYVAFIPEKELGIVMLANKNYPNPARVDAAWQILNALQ
Method: (§1) Kinetic analyses were performed (at least in triplicate) using either BMG LABTECH PHERAstar or CLARIOstar plate readers. Unless stated otherwise, reactions were in 50 mM phosphate buffer, pH 7.5, containing 0.01% (vol/vol) aqueous Triton X-100, and, in the case of OXA-10, 10 mM sodium bicarbonate. Assays were performed in competition with either the fluorescent reporter substrate FC-5 ([35]), using black-walled microplates (Greiner Bio-One μCLEAR, PS, F-bottom, black), and measuring fluorescence intensity (ʎex = 380 nm and ʎem = 460 nm), or with nitrocefin (NCF), using ultraviolet transparent plates (Greiner Bio-One UV-Star, COC, F-bottom, clear) and measuring absorbance (ʎAbs = 486 nm, using path-length correction). Nonlinear regression analysis was performed with Prism 5 (GraphPad Software).
IC50s were determined as reported ([35]). TEM-116 (1 nM), AmpCEC (500 pM), or OXA-10 (250 pM) were incubated with varied inhibitor concentrations at room temperature (r.t.) for the indicated time then assayed using 5 µM FC-5. The apparent inhibitory constant Kiapp and the second-order rate constant kinact/K (or k2/K) were determined using reported methods ([60]). SBLs were reacted with the reporter substrate in the presence of varied inhibitor concentrations. Reactions were initiated by SBL addition and immediately monitored for 60 to 120 s (until they plateaued). For TEM-116 (1 nM) assays were carried out in competition with NCF (50 µM); for AmpCEC (100 nM) and OXA-10 (50 nM) FC-5 (5 µM) was used. […] P=Vst+(V0−VS)(1−e^−kobst)/kobs+P0.

OXA-10 [4] = target: T1, OXA-10; test: Kiapp and kinact/K determination in competition with FC-5; type: biochemical
Method: as §1
(§2) IC50s were determined as reported ([35]). TEM-116 (1 nM), AmpCEC (500 pM), or OXA-10 (250 pM) were incubated with varied inhibitor concentrations at room temperature (r.t.) for the indicated time then assayed using 5 µM FC-5. The apparent inhibitory constant Kiapp and the second-order rate constant kinact/K (or k2/K) were determined using reported methods ([60]). SBLs were reacted with the reporter substrate in the presence of varied inhibitor concentrations. Reactions were initiated by SBL addition and immediately monitored for 60 to 120 s (until they plateaued). […]

AmpCEC = target: T3, AmpCEC (Escherichia coli, UniProt P00811); test: biochemical
T3 construct: made in house
T3 sequence (P00811 20-377): as above
Method: as §1, §2

T1 sequence (P14489 20-266): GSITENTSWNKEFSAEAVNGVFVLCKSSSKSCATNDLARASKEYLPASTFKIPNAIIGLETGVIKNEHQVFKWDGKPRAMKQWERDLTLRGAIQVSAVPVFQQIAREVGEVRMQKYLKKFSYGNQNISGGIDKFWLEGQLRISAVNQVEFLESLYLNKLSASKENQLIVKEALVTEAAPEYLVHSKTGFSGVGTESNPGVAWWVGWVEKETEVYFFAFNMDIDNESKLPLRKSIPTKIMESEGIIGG

For `CC1(C)[C@H](C(=O)O)N2C(=O)C[C@H]2S1(=O)=O` [sulbactam], the IC50 (OXA-10 [1]; IC50, OXA-10, 10 min pre-incubation, r.t., pH 7.5, FC-5 (5 μM), 100 mM NaHCO3 added) was 143 µM and 142 µM, the IC50 (OXA-10 [1]; pIC50 at pH 7.5, OXA-10, with 100 mM added NaHCO3, 0 min pre-incubation, Table S1) was 218.8 ± 0.598 µM and the IC50 (OXA-10 [1]; pIC50 at pH 7.5, OXA-10, with 100 mM added NaHCO3, 30 min pre-incubation, Table S1) was 263 µM. The IC50 (OXA-10 [1]; pIC50 at pH 7.5, OXA-10, with 100 mM added NaHCO3, 60 min pre-incubation, Table S1) was 112 µM, the IC50 (OXA-10 [1]; pIC50 at pH 7.5, OXA-10, with 100 mM added NaHCO3, 360 min pre-incubation, Table S1) was 204 µM and the IC50 (OXA-10 [1]; pIC50 at pH 7.5, OXA-10, without added NaHCO3, 0 min pre-incubation, Table S1) was 204 µM. For the same compound, the IC50 (OXA-10 [1]; pIC50 at pH 7.5, OXA-10, without added NaHCO3, 10 min pre-incubation, Table S1) was 87.1 µM, the IC50 (OXA-10 [1]; pIC50 at pH 7.5, OXA-10, without added NaHCO3, 30 min pre-incubation, Table S1) was 89.1 µM and the IC50 (OXA-10 [1]; pIC50 at pH 7.5, OXA-10, without added NaHCO3, 60 min pre-incubation, Table S1) was 75.9 µM. For the same compound, the IC50 (OXA-10 [1]; pIC50 at pH 7.5, OXA-10, without added NaHCO3, 360 min pre-incubation, Table S1) was 50.1 µM, the “−18-Da modification, OXA-10” value (OXA-10 [2]) was “Small amounts” and the IC50 ([3]; IC50, AmpC E. coli, 10 min pre-incubation, r.t., pH 7.5, FC-5 (5 μM)) was 89 µM and 89.2 µM. The IC50 ([3]; pIC50, AmpCEC, pH 7.0, pH 7.0, 0 min pre-incubation, Table S2) was 447 µM, the IC50 ([3]; pIC50, AmpCEC, pH 7.0, pH 7.0, 10 min pre-incubation, Table S2) was 162 µM and the IC50 ([3]; pIC50, AmpCEC, pH 7.0, pH 7.0, 30 min pre-incubation, Table S2) was 69.2 µM. For the same compound, the IC50 ([3]; pIC50, AmpCEC, pH 7.0, pH 7.0, 60 min pre-incubation, Table S2) was 45.7 µM, the IC50 ([3]; pIC50, AmpCEC, pH 7.0, pH 7.0, 360 min pre-incubation, Table S2) was 11.5 µM and the IC50 ([3]; pIC50, AmpCEC, pH 7.5, pH 7.5, 0 min pre-incubation, Table S2) was 275 µM. The IC50 ([3]; pIC50, AmpCEC, pH 7.5, pH 7.5, 30 min pre-incubation, Table S2) was 36.3 µM, the IC50 ([3]; pIC50, AmpCEC, pH 7.5, pH 7.5, 60 min pre-incubation, Table S2) was 20 µM and the IC50 ([3]; pIC50, AmpCEC, pH 7.5, pH 7.5, 360 min pre-incubation, Table S2) was 4.17 µM. The IC50 ([3]; pIC50, AmpCEC, pH 8.0, pH 8.0, 0 min pre-incubation, Table S2) was 97.7 µM, the IC50 ([3]; pIC50, AmpCEC, pH 8.0, pH 8.0, 10 min pre-incubation, Table S2) was 37.2 µM and the IC50 ([3]; pIC50, AmpCEC, pH 8.0, pH 8.0, 60 min pre-incubation, Table S2) was 9.77 µM. For the same compound, the IC50 ([3]; pIC50, AmpCEC, pH 8.0, pH 8.0, 360 min pre-incubation, Table S2) was 1.7 µM, the IC50 ([3]; pIC50 at pH 7.5, AmpCEC, 0 min pre-incubation, Table S1) was 275 µM and the IC50 ([3]; pIC50 at pH 7.5, AmpCEC, 30 min pre-incubation, Table S1) was 36.3 µM. For the same compound, the IC50 ([3]; pIC50 at pH 7.5, AmpCEC, 60 min pre-incubation, Table S1) was 20 µM, the IC50 ([3]; pIC50 at pH 7.5, AmpCEC, 360 min pre-incubation, Table S1) was 4.17 µM and the Ki (OXA-10 [4]) was 4920 ± 873 µM. For the same compound, the Ki (AmpCEC) was 1580 ± 189 µM.

— publication PMC9170034 (Proceedings of the National Academy of Sciences of the …, 2022)
